Results from ChEMBL document CHEMBL5257121, “Discovery of arylsulfonamides as a novel class of allosteric integrase inhibitors with antiviral activity” (Bioorg Med Chem Lett, 2023).

Columns and labels:
[1] = Allosteric inhibition of LEDGF binding to HIV integrase by InLEAD assay; design: species or system Human immunodeficiency virus
[2] = system: Human immunodeficiency virus 1; assay: Antiviral activity against HIV-1; assay type: functional, organism-based
[3] = system: Human immunodeficiency virus 1; assay: Antiviral activity against late stage HIV-1 assessed as inhibition of viral replication; assay type: functional, organism-based
[4] = system: Human immunodeficiency virus 1; assay: Selectivity ratio of IC50 for antiviral activity against early stage HIV-1 to IC50 for antiviral activity against late stage HIV-1; assay type: functional
[5] = system: Human immunodeficiency virus 1; assay: Antiviral activity against early stage HIV-1 assessed as disruption of proviral integration; assay type: functional, organism-based

SMILES	IC50 [1]	IC50 [2]	IC50 [3]	Ratio IC50 [4]	IC50 [5]
COc1ccc(NC(=O)c2cc(-c3ccccc3S(=O)(=O)NC(C)(C)C)ccn2)cc1	3.79 µM	6.35 µM			
COc1ccc(NC(=O)c2cncc(-c3cccc(C)c3S(=O)(=O)NC(C)(C)C)c2)cc1	> 67.5 µM	16.1 µM			
CC(C)(C)NS(=O)(=O)c1ccccc1-c1cncc(C(=O)Nc2ccc(CCC(=O)NCCNC(=O)c3ccc4c(c3)C(=O)OC43c4ccc(O)cc4Oc4cc(O)ccc43)cc2)c1	0.368 µM				
CC(C)(C)NS(=O)(=O)c1ccccc1-c1cccc(C(=O)Nc2ccc(CCC(=O)O)cc2)c1	3.74 µM	6.53 µM	12 µM	>3.6	> 42 µM
COC(=O)CCc1ccc(NC(=O)c2cccc(-c3ccccc3S(=O)(=O)NC(C)(C)C)c2)cc1	1.45 µM	4.91 µM			
CCC(C)(C)NS(=O)(=O)c1ccccc1-c1cccc(C(=O)Nc2ccc(OC)cc2)c1	17.3 µM	7.19 µM			
COc1ccc(NC(=O)c2cncc(-c3ccccc3S(=O)(=O)NC(C)(C)C)c2)cc1	1.29 µM	7.93 µM	5.09 µM	5.4	27.3 µM
COc1ccc(NC(=O)c2cccc(-c3ccccc3S(=O)(=O)NC(C)(C)C)c2)c(C)c1	1.91 µM	5.03 µM			
COc1ccc(NC(=O)c2cncc(-c3c(C)cccc3S(=O)(=O)NC(C)(C)C)c2)cc1	1.29 µM	1.4 µM	2.7 µM	9.3	25.2 µM
COCC1(NS(=O)(=O)c2ccccc2-c2cccc(C(=O)Nc3ccc(OC)cc3)c2)CCCC1	> 67.5 µM	5.15 µM	7.15 µM	2.3	16.3 µM
COc1ccc(NC(=O)c2cncc(-c3cc(C)ccc3S(=O)(=O)NC(C)(C)C)c2)cc1	8.85 µM	15.6 µM			
COc1ccc(NC(=O)c2cc(-c3ccccc3S(=O)(=O)NC(C)(C)C)ccc2Cl)cc1	> 67.5 µM	> 42 µM			
COc1ccc(NC(=O)c2cccc(-c3ccccc3S(=O)(=O)NC(C)(C)C)c2)cc1	3.69 µM	10.9 µM			
CC(C)(C)NS(=O)(=O)c1ccccc1-c1cncc(C(=O)Nc2ccc(CCC(=O)O)cc2)c1	1.29 µM	9.31 µM			
Cc1ccc(-c2c([C@H](OC(C)(C)C)C(=O)O)c(C)nc3ccccc23)cc1C	0.037 µM		0.031 µM	53.9	1.67 µM
COc1ccc(NC(=O)c2cc(-c3ccccc3S(=O)(=O)NC(C)(C)C)ccc2F)cc1	2.81 µM	9.43 µM			
COC(=O)C(Cc1ccccc1)NC(=O)CCc1ccc(NC(=O)c2cncc(-c3ccccc3S(=O)(=O)NC(C)(C)C)c2)cc1 (stereo not drawn)	3.22 µM	3 µM			
COc1ccc(NC(=O)c2cccc(-c3ccccc3S(=O)(=O)NC(C)(C)C(C)(C)C)c2)cc1	> 22.5 µM	27.7 µM			
COc1ccc(NC(=O)c2cccc(-c3ccccc3S(=O)(=O)NC3(C)CCC3)c2)cc1	2.23 µM	5.79 µM			
Cc1ccc(NC(=O)c2cccc(-c3ccccc3S(=O)(=O)NC(C)(C)C)c2)c(C)c1	1.05 µM	5.1 µM			
COc1ccc(NC(=O)c2cccc(-c3ccccc3S(=O)(=O)NC(C)(C)CC(C)(C)C)c2)cc1	> 67.5 µM	2.91 µM			
COc1ccc(NC(=O)c2cncc(-c3ccc(C)cc3S(=O)(=O)NC(C)(C)C)c2)cc1	> 67.5 µM	10.8 µM			
CC(C)(C)NS(=O)(=O)c1ccccc1-c1cncc(C(=O)Nc2ccc(CCCC(=O)O)cc2)c1	1 µM	7.86 µM			
COc1ccc(NC(=O)c2cccc(-c3ccccc3S(=O)(=O)NC(C)(C)C)n2)cc1	> 33.8 µM	11.2 µM			
COc1ccc(NC(=O)c2cccc(-c3ccccc3S(=O)(=O)NC3(C)CC3)c2)cc1	5.97 µM	5.81 µM			
